Measurements as given in the NIST ThermoML archive (doi:10.1016/j.jct.2005.05.003).

Experiment: mn = molality of the nth substance listed, in mol/kg
Conditions: Liquid, Vibrating tube method

[Ca+2].[Cl-].[Cl-] [calcium chloride] + CO
Conditions	mass density [kg/m3]
348.24 K, 14994 kPa, m1 = 0.1082	766.79
348.24 K, 14997 kPa, m1 = 0.6588	815.48
348.24 K, 15007 kPa, m1 = 0.2853	782.23
348.24 K, 19987 kPa, m1 = 0.6588	820.39
348.24 K, 19991 kPa, m1 = 0.2853	787.34
348.24 K, 20008 kPa, m1 = 0.1082	772.12
348.24 K, 24982 kPa, m1 = 0.1082	777.11
348.24 K, 24994 kPa, m1 = 0.6588	825.04
348.24 K, 24997 kPa, m1 = 0.2853	792.2
348.24 K, 29990 kPa, m1 = 0.1082	781.87
348.24 K, 29991 kPa, m1 = 0.2853	796.8
348.24 K, 29992 kPa, m1 = 0.6588	829.46
348.24 K, 34986 kPa, m1 = 0.2853	801.19
348.24 K, 34998 kPa, m1 = 0.6588	833.71
348.24 K, 35025 kPa, m1 = 0.1082	786.39
348.24 K, 39992 kPa, m1 = 0.1082	790.73
348.24 K, 40048 kPa, m1 = 0.6588	837.76
348.24 K, 40055 kPa, m1 = 0.2853	805.38
373.24 K, 517 kPa, m1 = 2.393	904.38
373.24 K, 4985 kPa, m1 = 2.393	909.14
373.24 K, 10000 kPa, m1 = 2.393	914.19
373.24 K, 14988 kPa, m1 = 2.393	918.95
373.24 K, 20003 kPa, m1 = 2.393	923.48
373.24 K, 25015 kPa, m1 = 2.393	927.81
373.24 K, 29988 kPa, m1 = 2.393	931.93
373.24 K, 35016 kPa, m1 = 2.393	935.94
373.24 K, 40000 kPa, m1 = 2.393	939.74
373.26 K, 523 kPa, m1 = 0.2853	738.51
373.26 K, 527 kPa, m1 = 0.1082	722.32
373.26 K, 534 kPa, m1 = 0.6588	773.01
373.26 K, 4997 kPa, m1 = 0.2853	745.17
373.26 K, 4999 kPa, m1 = 0.1082	729.31
373.26 K, 5013 kPa, m1 = 0.6588	779.26
373.26 K, 9996 kPa, m1 = 0.2853	752.01
373.26 K, 10000 kPa, m1 = 0.6588	785.66
373.26 K, 10001 kPa, m1 = 0.1082	736.45
373.26 K, 14984 kPa, m1 = 0.2853	758.3
373.26 K, 14986 kPa, m1 = 0.6588	791.62
373.26 K, 15009 kPa, m1 = 0.1082	743.03
373.26 K, 19980 kPa, m1 = 0.2853	764.17
373.26 K, 19981 kPa, m1 = 0.1082	749.09
373.26 K, 20010 kPa, m1 = 0.6588	797.23
373.26 K, 24999 kPa, m1 = 0.2853	769.7
373.26 K, 25000 kPa, m1 = 0.6588	802.48
373.26 K, 25016 kPa, m1 = 0.1082	754.83
373.26 K, 29995 kPa, m1 = 0.1082	760.17
373.26 K, 29996 kPa, m1 = 0.6588	807.45
373.26 K, 30000 kPa, m1 = 0.2853	774.89
373.26 K, 34993 kPa, m1 = 0.2853	779.79
373.26 K, 35000 kPa, m1 = 0.6588	812.19
373.26 K, 35003 kPa, m1 = 0.1082	765.25
373.26 K, 40001 kPa, m1 = 0.6588	816.69
373.26 K, 40004 kPa, m1 = 0.2853	784.46
373.26 K, 40011 kPa, m1 = 0.1082	770.07
398.25 K, 888 kPa, m1 = 2.393	878.49
398.25 K, 5007 kPa, m1 = 2.393	883.68
398.25 K, 10016 kPa, m1 = 2.393	889.54
398.25 K, 14986 kPa, m1 = 2.393	895.06
398.25 K, 19983 kPa, m1 = 2.393	900.25
398.25 K, 24997 kPa, m1 = 2.393	905.15
398.25 K, 29989 kPa, m1 = 2.393	909.82
398.25 K, 34996 kPa, m1 = 2.393	914.29
398.25 K, 40014 kPa, m1 = 2.393	918.56
398.27 K, 880 kPa, m1 = 0.6588	744.38
398.27 K, 899 kPa, m1 = 0.2853	709.27
398.27 K, 901 kPa, m1 = 0.1082	692.84
398.27 K, 4987 kPa, m1 = 0.6588	751.36
398.27 K, 4995 kPa, m1 = 0.2853	716.79
398.27 K, 4999 kPa, m1 = 0.1082	700.78
398.27 K, 9984 kPa, m1 = 0.2853	725.04
398.27 K, 9997 kPa, m1 = 0.6588	759.11
398.27 K, 10005 kPa, m1 = 0.1082	709.46
398.27 K, 14988 kPa, m1 = 0.2853	732.54
398.27 K, 15011 kPa, m1 = 0.1082	717.28
398.27 K, 15012 kPa, m1 = 0.6588	766.18
398.27 K, 19999 kPa, m1 = 0.2853	739.43
398.27 K, 20003 kPa, m1 = 0.1082	724.41
398.27 K, 20013 kPa, m1 = 0.6588	772.68
398.27 K, 24989 kPa, m1 = 0.2853	745.78
398.27 K, 25000 kPa, m1 = 0.6588	778.71
398.27 K, 25003 kPa, m1 = 0.1082	730.99
398.27 K, 29985 kPa, m1 = 0.6588	784.37
398.27 K, 30002 kPa, m1 = 0.2853	751.73
398.27 K, 30013 kPa, m1 = 0.1082	737.16
398.27 K, 34982 kPa, m1 = 0.1082	742.86
398.27 K, 34983 kPa, m1 = 0.2853	757.27
398.27 K, 35012 kPa, m1 = 0.6588	789.76
398.27 K, 39992 kPa, m1 = 0.2853	762.54
398.27 K, 39995 kPa, m1 = 0.1082	748.29
398.27 K, 39999 kPa, m1 = 0.6588	794.79
